From patent publication US20130184272A1, “DIABETES THERAPEUTIC AGENT” (TAKEDA PHARMACEUTICAL COMPANY LIMITED, priority 2010, published 2013)

Tests used:
[1] = tested on: Mouse-derived myoblast line C2C12 cell; assay: Cell differentiation promoting activity in myoblast (creatine kinase activity); type: cell-based; conditions: 2 days, without compound = 100%; for activity at 0.01 µM: compound at 0.01 μM (**)
Protocol: • (1) Mouse-derived myoblast line C2C12 cell (Dainippon Pharmaceutical Co., Ltd.) was subcultured in a high glucose Eagle's modified Dulbecco's medium (GIBCO) added with 10% calf fetal bovine serum (GIBCO), 100 unit/mL penicillin and 100 μg/mL streptomycin (hereinafter to be referred to as a growth medium), plated at 5000 cells/cm^2 and cultured at 37° C., under 5% CO2. • (2) When the cells reached subconfluence of not less than 90%, the medium was exchanged with high glucose Eagle's modified Dulbecco's medium (GIBCO) added with (i) 2% horse serum (GIBCO) and (ii) penicillin, streptomycin and a test compound (hereinafter to be referred to as a differentiation medium) and the cells were cultured for 2 days. To the control group was added DMSO solution instead of the test compound. • (3) The cells were washed with PBS, 0.5% NP-40 solution was added, and the cells were lysed by freeze-thawing. The cell extract was centrifuged and the creatine kinase activity in the supernatant was measured as an index of muscle differentiation. The creatine kinase activity was measured using CPKII Test Wako (Wako Pure Chemical Industries, Ltd.) according to the manual of the kit.
The numerical values in Table 1 show creatine kinase activity of the compound addition group when the creatine kinase activity without addition of the compound is 100%, and * means measurement with addition of the compound at 10 μM, ** at 0.01 μM, and others at 1 μM.

C2C12 cell = assay: Sugar metabolism promoting activity in muscle cell (lactic acid production); type: cell-based, Mouse; conditions: compound 1 μM, 2 days, C2C12 myotubes, without drug = 100%; for activity at 1 µM: Mus musculus, 48 h, read-out: lactic acid production promoting action (%)
Protocol: • (1) In the same manner as in Example 1, C2C12 cell was cultured in a growth medium. After reaching subconfluence of not less than 90%, the medium was exchanged with a differentiation medium and the cells were cultured for about 7 days while exchanging the medium every 2 or 3 days until the cells differentiated to form a myotube. • (2) After confirmation of myotube formation under a microscope, the test compound (1 μM) was added to a differentiation medium and cultured for 2 days. The cells were washed with Krebs-Ringer HEPES phosphate buffer (10 mM HEPES, pH 7.4, 131 mM NaCl, 4.7 mM KCl, 2.5 mM CaCl2—2H2O, 1.2 mM MgSO4—7H2O, 1.2 mM KH2PO4), the medium was exchanged with Krebs-Ringer HEPES phosphate buffer added with 5 mM glucose, 0.2% fatty acid-free bovine serum albumin, and cultured at 37° C. for 4 hr. • (3) The lactic acid concentration of the culture supernatant was measured using Detarminer LA kit (Kyowa Medex Co., Ltd.).
The numerical values in Table 2 show the concentration of the compound addition group with the concentration of lactic acid without addition of a drug as 100%.

Female KKA^y mice = assay: Anti-diabetes action and dyslipidemia improving effect in KKA^y mouse; type: in vivo; conditions: 2 weeks, control group = 100
Protocol: Female KKA^y mice (12-week-old, CLEA Japan, Inc.) were bred while allowing free ingestion of both feed and water. The mice were bred for acclimation with powder CE-2 (CLEA Japan, Inc.) from 2 weeks before administration of the compound. The body weight and plasma markers were measured and, at 14 weeks of age, they were divided such that the measured values were uniform with those of the control group. The compound of Reference Example 1, 2, 7, 8, 9 or 22 was administered for 2 weeks in a mixed feed (0.01-0.0001%). On the last day, plasma levels of glucose, insulin, total cholesterol and neutral lipid were measured.

[2] = Mus musculus, C2C12, 48 h, read-out: creatine kinase activating action (%)
[3] = Mus musculus, C2C12, 48 h, compound at 1 μM, read-out: creatine kinase activating action (%)

Row | Structure (SMILES) | activity at 0.01 µM [1, 2] [%] | activity at 1 µM (C2C12 cell) [%] | plasma glucose (%) (Female KKA^y mice; mixed feed dose 0.0003 %) | plasma neutral lipid (%) (Female KKA^y mice; mixed feed dose 0.0003 %) | plasma total cholesterol (%) (Female KKA^y mice; mixed feed dose 0.0003 %) | activity at 1 µM [1, 3] [%] | further results
1 | Cn1ncc2c1-c1c(Oc3ccc4c(c3)OCO4)sc(C(N)=O)c1CC2 [Ref. Ex. 9, 8-(1,3-benzodioxol-5-yloxy)-1-methyl-4,5-dihydro-1H-thieno[3,4-g]indazole-6-carboxamide] | 171 | 196 |  |  |  |  | plasma glucose (%) (Female KKA^y mice; mixed feed dose 0.001 %): 42.9 ± 3.7%; plasma insulin (%) (Female KKA^y mice; mixed feed dose 0.001 %): 13.7 ± 21.1%; plasma neutral lipid (%) (Female KKA^y mice; mixed feed dose 0.001 %): 51.0 ± 11.9%; plasma total cholesterol (%) (Female KKA^y mice; mixed feed dose 0.001 %): 74.5 ± 14.4%
2 | Cn1ncc2c1-c1c(Oc3ccc(OC(F)(F)F)cc3)sc(C(N)=O)c1CC2 [Ref. Ex. 8, 1-methyl-8-[4-(trifluoromethoxy)phenoxy]-4,5-dihydro-1H-thieno[3,4-g]indazole-6-carboxamide] | 190 | 274 | 78.2 ± 22.2 | 72.2 ± 22.1 | 85.7 ± 11.5 |  | 
3 | Cn1ncc2c1-c1c(Oc3ccc(F)cc3)sc(C(N)=O)c1CC2 [Ref. Ex. 2, 8-(4-fluorophenoxy)-1-methyl-4,5-dihydro-1H-thieno[3,4-g]indazole-6-carboxamide] | 175 | 159 | 49.0 ± 7.1 | 40.4 ± 6.6 | 62.4 ± 7.1 |  | 
4 | CCCS(=O)(=O)c1sc(C(N)=O)c2c1-c1c(cnn1C)CC2 [Ref. Ex. 13, 1-methyl-8-(propylsulfonyl)-4,5-dihydro-1H-thieno[3,4-g]indazole-6-carboxamide] |  | 154 |  |  |  |  | activity at 10 µM ([1]; Mus musculus, C2C12, 48 h, compound at 10 μM (*), read-out: creatine kinase activating action (%)): 128%
5 | COc1ncccc1Oc1sc(C(N)=O)c2c1-c1c(cnn1C)CC2 [Ref. Ex. 34, 8-[(2-methoxypyridin-3-yl)oxy]-1-methyl-4,5-dihydro-1H-thieno[3,4-g]indazole-6-carboxamide] |  | 249 |  |  |  | 164 | 
6 | Cn1ncc2c1-c1c(Oc3ccc[n+]([O-])c3)sc(C(N)=O)c1CC2 [Ref. Ex. 33, 1-methyl-8-[(1-oxidepyridin-3-yl)oxy]-4,5-dihydro-1H-thieno[3,4-g]indazole-6-carboxamide] |  |  |  |  |  |  | creatine kinase activating action (%) ([1]; compound at 1 μM): 156%; lactic acid production promoting action (%) (C2C12 cell): 155%
7 | CC(=O)Nc1ccc(Oc2sc(C(N)=O)c3c2-c2c(cnn2C)CC3)cc1 [Ref. Ex. 22, 8-[4-(acetylamino)phenoxy]-1-methyl-4,5-dihydro-1H-thieno[3,4-g]indazole-6-carboxamide] | 195 | 311 | 60.9 ± 27.1 | 42.3 ± 7.2 | 71.0 ± 7.3 |  | 
8 | CCCCc1sc(C(N)=O)c2c1-c1c(cnn1C)CC2 [Ref. Ex. 14, 8-butyl-1-methyl-4,5-dihydro-1H-thieno[3,4-g]indazole-6-carboxamide] |  | 265 |  |  |  | 151 | 
9 | CN(CCOc1ncccc1Oc1sc(C(N)=O)c2c1-c1c(cnn1C)CC2)c1ccccc1 [Ref. Ex. 41, 1-methyl-8-[(2-{2-[methyl(phenyl)amino]ethoxy}pyridin-3-yl)oxy]-4,5-dihydro-1H-thieno[3,4-g]indazole-6-carboxamide] |  | 120 |  |  |  | 130 | 
10 | CCCSc1sc(C(N)=O)c2c1-c1c(cnn1C)CC2 [Ref. Ex. 11, 1-methyl-8-(propylsulfanyl)-4,5-dihydro-1H-thieno[3,4-g]indazole-6-carboxamide] |  | 239 |  |  |  | 198 | 
